“Also recorded” adds a separate entry of the source. Bridges are numbered along the chain shown (N, C = ends). Roman numbers before positions name the chains, in order.
Key:
[1] = Zn(II)/phosphate challenge, relaxivity, 2.5 mM complex and 2.5 mM Zn(II); ref Laurent et al.; cited from earlier work
Source text: The stability of MRI contrast agents is often benchmarked by the “ratio index”, defined as the time for the relaxation value to drop to 80% of its initial value under Zn(II)/phosphate challenge. […] Laurent et al. monitored complex integrity using relaxivity under equimolar condi ...

[2] = Native mass spectrometry metalation; format: binding; details: 10 μM trimer : 10 μM metal, 50 mM ammonium acetate pH 6.8, room temperature, 60 min
Source text: This preserves noncovalent interactions enabling coiled coil complexes to be detected. […] (C) Representative full Tb(III) emission spectra for each titration point. λex = 280 nm. […] Error bars determined from standard deviation error of three independent repeat experiments. […] page 4: […] Upon successful purification, removal of Tb(III) was confirmed on a small aliquot of cross-linked peptide by fluorescence spectroscopy. Here the absence of enhanced/sensitized Tb(III) emission, at 545 nm, is consistent with complete […] Stock solutions preparation: In all experiments, the concentration of peptide stock […] Once samples were prepared, the concentration of the solutions were checked by UV vis and adjust if necessary. All GdCl3 and TbCl3 stock solutions were freshly […] solutions were also freshly prepared and determined in a similar fashion using EDTA and xylenol orange indicator solution.6 The equivalence of metal added was then adjust to the exact concentration of peptide in the sample. […] in volumetric glassware using MilliQ water. Native mass spectrometry (MS): […] ammonium acetate pH 6.8. The concentrations of the peptides were measured using the […] Metal stock solutions were initially prepared by […] These stock solutions were then […] […] The observed molecular weights were calculated from an average of 3 charge states. […]

[3] = biological target: T1, trypsin (bovine pancreas) (Bos taurus, UniProt P00760); test: in vitro; format: in vitro ADME; details: 100 µM, 12 μM trypsin, 100 mM HEPES pH 7.5, 37 °C, HPLC
T1 construct: from tissue; host or cells: bovine pancreas
T1 sequence (P00760 24-246): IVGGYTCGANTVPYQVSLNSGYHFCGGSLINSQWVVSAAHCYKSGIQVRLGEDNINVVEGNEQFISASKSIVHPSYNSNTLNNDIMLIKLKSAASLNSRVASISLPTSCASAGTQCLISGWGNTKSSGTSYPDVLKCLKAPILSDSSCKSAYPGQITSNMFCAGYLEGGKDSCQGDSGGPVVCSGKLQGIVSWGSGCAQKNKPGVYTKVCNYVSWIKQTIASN
Method: (§1) page 8: determined as reported periously10 at the data was fitted to the Hills equation using MatLab.11 Stability Studies: Zinc transmetallation experiments: Emission spectra of Tb(III) were recorded for 1.0 µM […] Zinc chloride (ZnCl₂) was then added to each cuvette to give a final concentration of 125 µM Zn(II), and the fluorescence emission spectra were subsequently collected over time. The Tb(III) emission for each sample was normalized to the integrated intensity of the 545 nm emission peak from the initial spectrum. Phosphate and HEPES: Emission spectra of Tb(III) were recorded for 1.0 µM solutions of […] Phosphate buffer prepared from a mixture of sodium monobasic and tribasic phosphate salts (to give a stock concentration of 100 mM at pH 7.0) […] Fluorescence emission spectra were subsequently collected over time. The Tb(III) emission for each sample was normalized to the integrated intensity of the 545 nm emission peak from the initial spectrum. A control was carried out using the same methodology, this time monitoring the change in Tb emission upon the addition of HEPES buffer instead of phosphate. Protease experiments: A trypsin (bovine pancreas) stock solution was prepared (1.5 mg/mL) by dissolving in 100 mM HEPES at pH 7.5. The peptide stock solution was prepared by dissolving the lyophilized peptide in the same buffer solution, and the concentration determined as reported previously. In the case when the peptide was metalated, samples were left to equilibrate with the metal upon addition for around 60 min. prior to the addition of the trypsin. Samples were left to incubate in a water bath at 37°C. At specific time points, 35 µl of each sample were taken and quenched with 35 µl of 4% TFA solution. […] Individual peaks from the HPLC were collected and then analyzed by ESI mass spectrometry in positive mode. Samples were ionised using nanoelectrospray ionisation (TriVersa NanoMate, Advion Interchim Scientific, […] 8 page 27: Figure S14: […] Figure S14: […] pancreas) and 100 mM HEPES buffered at pH 7.5. […] monitored. 27 (1 picture or pasted object on this page, not shown here) page 28: Figure S15: […] Figure S15: […] pancreas) and 100 mM HEPES buffered at pH 7.5. […] monitored. 28 (1 picture or pasted object on this page, not shown here)

[4] = tested on: T2, trypsin (bovine pancreas); test: in vitro; format: in vitro ADME; details: isolated enzyme trypsin, 100 µM, 12 μM trypsin, 100 mM HEPES pH 7.5, 37 °C, HPLC, trimers lacking C-terminal G-NH2 or Ac-G IAAIEQK counted
T2 construct: from tissue; host or cells: bovine pancreas
Method: as §1

CD thermal unfolding = format: physicochemical; details: apo, 10 μM, 10 mM HEPES pH 7.0, CD 222 nm
Method: 2 (A) CD spectra of 0.1 μM and (B) 10 μM KH2-20X and MB1-2 trimers in the absence (apo; KH2-20X, orange; MB1-2, blue) and presence (holo; KH2-20X + TbCl3, red; MB1-2 + TbCl3, turquoise) of 1.0 equiv of TbCl3, recorded at 293 K. (C) CD thermal unfolding profiles of 10 μM trimers monitoring the molar ellipticity at 222 nm: apo MB1-2 (blue), Tb(MB1-2)3 (turquoise), apo KH2-20X (orange), and Tb(KH2-20X) (red). Solid lines indicate forward heating, and dotted lines indicate reverse cooling. All experiments were conducted in HEPES buffer at pH 7.0, with buffer concentrations adjusted to match peptide concentration (0.1 and 10.0 mM for 0.1 and 10.0 μM peptide, respectively). […]
10 µM peptide in 10 mM HEPES, 0.1 mM TbCl₃ into 1 µM peptide in 1 mM HEPES, and 0.01 mM TbCl₃ into 0.1 µM peptide in 0.1 mM HEPES (all at pH 7.0). […] The observed ellipticity was then converted into molar ellipticity, where the helical content was calculated as the percentage folded, based on the theoretical maximum ellipticity at 222 nm as reported by Scholtz et al.9 Thermal unfolding data was recorded by monitoring the ellipticity at 222 nm of a 10 μM trimer concentration of MB1-2 and KH2-20X solution in 10 mM HEPES buffer (pH 7.0) in the absence and presence of 10 μM TbCl3, using a Jasco Peltier Type MPTC-513 temperature controller ramping from 20 °C to 85 °C in 0.1°C increments, heating at 1 °C/min. […]

[5] = Circular dichroism folding (% folded from ellipticity at 222 nm); format: physicochemical; details: CD 222 nm, no metal, 10 mM HEPES pH 7.0, 293 K, triplicate
[6] = Kinetics of Tb(III) binding and coiled coil folding (CD 222 nm / Tb emission 545 nm); format: physicochemical; details: 0.1, 1.0 and 10 μM, 10 mM HEPES pH 7.0, 1.0 equiv TbCl3
trypsin = test: 12 µM trypsin (bovine pancreas) in 100 mM HEPES buffer pH 7.5; details: 37°C, up to 48 h
[7] = clinical agent; ref citation number not given; cited from earlier work
Source text: These findings advance our understanding of ligand suitability in MRI contrast agent design and illustrate the potential of metallo-coiled coils to surpass the performance limits of traditional inorganic complexes. By exploiting the modular natur ...

CNC[C@H](O)[C@@H](O)[C@H](O)[C@H](O)CO.O=C([O-])CN1CCN(CC(=O)[O-])CCN(CC(=O)O)CCN(CC(=O)[O-])CC1.[Gd+3] [Dotarem]
ratio index (time for relaxation value to drop to 80% of initial value) [1]: exceeds 5000 min

I: Ac-GIAAIEQKIAANEWKDAAIEQKIAAIEQKIAAIEQKG-NH2 / II: Ac-GIAAIEQKIAANEWKDAAIEQKIAAIEQKIAAIEQKG-NH2 / III: Ac-GIAAIEQKIAANEWKDAAIEQKIAAIEQKIAAIEQKG-NH2 (amide I:15-II:20, I:20-III:15, II:15-III:20) [KH2-20X]
% metalation by native mass spectrometry [2]: 95–100%
abundance of trimeric cross-linked IAANEWK DAAIEQK fragment at 30 min, apo [3]: 5%
abundance of trimeric cross-linked IAANEWK DAAIEQK fragment at 6 h, apo [3]: 20%
remaining at 0.5 h ([4]; read-out: % remaining intact as trimers after 30 min trypsin, apo): ~74%
remaining at 6 h ([4]; read-out: % remaining intact as trimers after 6 h trypsin, apo): ~45%
folding over the temperature range 20-85 °C (CD thermal unfolding): remain well-folded throughout the entire temperature range
% apo folding (10.0 μM trimer) [5]: 96 ± 3%
rate of Tb(III) binding (sensitized emission 545 nm) [6]: rapid across all tested concentrations

Ac-G IAAIEQK IAANEWK DAAIEQK IAAIEQK IAAIEQK G-NH2 [Tb(MB1-2)3]
cleaved bond (trypsin): Lys-G, major

Ac-G IAAIEQK IAANEWK DAAIEQK IAAIEQK IAAIEQK G-NH2 [MB1-2]
cleaved bond (trypsin): Lys-I, within 30 min; also recorded: Lys15-D, within 30 min; also recorded: Lys-G, within 30 min

CNC[C@H](O)[C@@H](O)[C@H](O)[C@H](O)CO.CNC[C@H](O)[C@@H](O)[C@H](O)[C@H](O)CO.O=C([O-])CN(CCN(CC(=O)[O-])CC(=O)O)CCN(CC(=O)[O-])CC(=O)O.[Gd+3] [Magnevist]
ratio index (time for relaxation value to drop to 80% of initial value) [1]: ~250 min

Ac-G IAAIEQK IAANEWK DAAIXQK IAAIEQK IAAIEQK G-NH2 [Tb(KH2-20X)]
cleaved bond (trypsin): Lys-G, major; also recorded: Lys-I

Ac-G IAAIEQK IAANEWK DAAIXQK IAAIEQK IAAIEQK G-NH2 [KH2-20X]
cleaved bond (trypsin): Lys-G, major, 30 min; also recorded: Lys-I, 30 min
fragment found (trypsin): trimeric cross-linked IAANEWK DAAIEQK (peak 5), 30 min
not cleaved (trypsin): uncleaved IAANEWK DAAIEQK stretch; individual IAANEWK and DAAIEQK fragments absent

O=C([O-])CN1CCN(CC(=O)[O-])CCN(CC(=O)[O-])CCN(CC(=O)[O-])CC1.[Gd+3] [Gd-DOTA]
r 1 relaxivity at 1.5 T [7]: 4.3 mM^–1 s^–1
r 2 relaxivity at 1.5 T [7]: 5.7 mM^–1 s^–1

Source: PMC12636026 (Journal of the American Chemical Society, 2025)
